Reference: patent US8133849B2, “Herbicidal compounds” (Syngenta Limited, priority 2007, dated 2012)

Assays:
Experiment in all cases: Example B2 herbicidal action, post-emergence, pots in glasshouse, damage score 0-10
Assay type in all cases: in vivo
Conditions in all cases: application post-emergence, rate 1000 g/ha, evaluated after 13 days
[1] = test system: Echinochloa crus-galli
In short: (§1)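 Pot-grown plants were sprayed post-emergence at 8 days with active ingredient in aqueous spray derived from acetone/water (50:50) containing 0.5% Tween 20. Glasshouse conditions were 24/16° C day/night, 14 h light and 65% humidity, with watering twice daily. Damage was scored 13 days after spraying.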

[2] = test system: Solanum nigrum
In short: as §1

[3] = test system: Ipomea hederaceae
In short: as §1

[4] = test system: Amaranthus retroflexus
In short: as §1

[5] = test system: Setaria faberi
In short: as §1

| SMILES | ECHCG damage score (10=total damage to plant; 0=no damage to plant) [1] | SOLNI damage score (10=total damage to plant; 0=no damage to plant) [2] | IPOHE damage score (10=total damage to plant; 0=no damage to plant) [3] | AMARE damage score (10=total damage to plant; 0=no damage to plant) [4] | SETFA damage score (10=total damage to plant; 0=no damage to plant) [5] |
| --- | --- | --- | --- | --- | --- |
| C#CCN1c2nccnc2C(OC(=O)C(C)C)=C(c2ccccc2[N+](=O)[O-])S1(=O)=O [Compound C68] | 0 | 2 | 1 | 0 | 0 |
| O=S1(=O)C(c2c(Cl)cccc2C(F)(F)F)=C(O)c2c(ncc[n+]2[O-])N1CC(F)F [Compound E2] | 6 | 9 | 8 | 8 | 8 |
| O=S1(=O)C(c2ccccc2Br)=C(O)c2nccnc2N1CC(F)F [Compound D18] | 4 | 10 | 10 | 10 | 5 |
| CC(C)C(=O)OC1=C(c2cc(C(F)(F)F)ccc2Cl)S(=O)(=O)N(CC(F)F)c2nccnc21 [Compound C91] | 6 | 9 | 10 | 9 | 3 |
| CC(C)(C)C(=O)OC1=C(c2c(F)ccc(-c3cccc(Cl)c3)c2Cl)S(=O)(=O)N(CC(F)F)c2nccnc21 [Compound C42, 2,2-dimethylpropionic acid-3-(2,3′-dichloro-4-fluoro-biphenyl-3-yl)-1-(2,2-difluoroethyl)-2,2-dioxo-1,2-dihydro-2-λ-6-thia-1,5,8-triaza-naphthalen-4-yl ester] | 2 | 3 | 4 | 2 | 2 |
| O=S1(=O)C(c2ccc(Br)cc2C(F)(F)F)=C(O)c2nccnc2N1CC(F)F [Compound D56] | 7 | 9 | 10 | 10 | 6 |
| CCN1c2nccnc2C(OC(=O)C(C)(C)C)=C(c2cc(C(F)(F)F)ccc2C(F)(F)F)S1(=O)=O [Compound C46] | 4 | 6 | 5 | 4 | 0 |
| CCSC(=O)OC1=C(c2cccc(Cl)c2Cl)S(=O)(=O)N(CC(F)F)c2nccnc21 [Compound C101] | 5 | 10 | 8 | 4 | 2 |
| CSC(=O)OC1=C(c2ccc(C(F)(F)F)cc2C(F)(F)F)S(=O)(=O)N(CC(F)F)c2nccnc21 [Compound C131] | 4 | 10 | 9 | 9 | 2 |
| CC(C)C(=O)OC1=C(c2ccccc2C(F)(F)F)S(=O)(=O)N(CCCl)c2nccnc21 [Compound C121] | 0 | 5 | 1 | 0 | 2 |
| CCN1c2nccnc2C(O)=C(c2c(F)cccc2C(F)(F)F)S1(=O)=O [Compound D21] | 6 | 9 | 9 | 8 | 6 |
| CC(C)(C)C(=O)OC1=C(c2c(Cl)ccc(Cl)c2C(F)(F)F)S(=O)(=O)N(CC(F)F)c2nccnc21 [Compound C52] | 7 | 8 | 10 | 9 | 8 |
| CC(C)C(=O)OC1=C(c2cc(C(F)(F)F)ccc2Cl)S(=O)(=O)N(C=CCl)c2nccnc21 (mixture of isomers) [Compound C114] | 0 | 10 | 6 | 4 | 2 |
| CC(C)(C)C(=O)OC1=C(c2cccc(Cl)c2Cl)S(=O)(=O)N(CC(F)F)c2nccnc21 [Compound C100] | 2 | 9 | 6 | 4 | 2 |
| CC(C)C(=O)OC1=C(c2ccc(C(F)(F)F)cc2C(F)(F)F)S(=O)(=O)N(CC(F)F)c2nccnc21 [Compound C127] | 4 | 10 | 8 | 8 | 2 |
| CCN1c2nccnc2C(OC(=O)C(C)C)=C(c2ccccc2OC(F)(F)F)S1(=O)=O [Compound C13] | 10 | 9 | 10 | 10 | 3 |
| CC(C)C(=O)OC1=C(c2cc(C(F)(F)F)ccc2Cl)S(=O)(=O)N(CCCl)c2nccnc21 [Compound C123] | 2 | 10 | 4 | 4 | 1 |
| CC(C)(C)C(=O)OC1=C(c2ccc(-c3ccc(Cl)cc3F)cc2Cl)S(=O)(=O)N(CC(F)F)c2nccnc21 [Compound C142] | 1 | 6 | 3 | 4 | 0 |
| CCN1c2nccnc2C(OC(=O)C(C)C)=C(c2c(Cl)cccc2C(F)(F)F)S1(=O)=O [Compound C30] | 6 | 10 | 9 | 8 | 5 |
| CCN1c2nccnc2C(O)=C(c2cc(C(F)(F)F)ccc2Cl)S1(=O)=O [Compound D15] | 2 | 9 | 9 | 9 | 4 |
| CCSC(=O)OC1=C(c2c(Cl)ccc(OC)c2F)S(=O)(=O)N(CC(F)F)c2nccnc21 [Compound C145] | 5 | 8 | 8 | 0 | 2 |
| CC(C)(C)C(=O)OC1=C(c2c(Cl)cccc2C(F)(F)F)S(=O)(=O)N(CC(F)F)c2nccnc21 [Compound C31] | 8 | 9 | 8 | 8 | 7 |
| CS(=O)(=O)OC1=C(c2cc(C(F)(F)F)ccc2Cl)S(=O)(=O)N(CC(F)F)c2nccnc21 [Compound C83, methanesulfonic acid 3-(2-chloro-5-trifluoromethyl-phenyl)-1-(2,2-difluoro-ethyl)-2,2-dioxo-1,2-dihydro-2-λ-6-thia-1,5,8-triaza-naphthalen-4-yl ester] | 7 | 10 | 10 | 9 | 1 |
| CCN1c2nccnc2C(OS(=O)(=O)C(F)(F)F)=C(c2ccc(Cl)cc2C(F)(F)F)S1(=O)=O [Compound C29, trifluoromethanesulfonic acid-3-(4-chloro-2-trifluoromethylphenyl)-1-ethyl-2,2-dioxo-1,2-dihydro-2-λ-6-thia-1,5,8-triaza-naphthalen-4-yl ester] | 4 | 5 | 5 | 2 | 0 |
